≈ marks a conversion by molar mass, not a printed value. Calls of active or inactive are those of the source. No cut-off for these calls is given here.
Legend:
[1] = biological target: T1, Amine oxidase [flavin-containing] B (Homo sapiens, UniProt P27338); experiment: Inhibition of human recombinant MAO-B expressed in baculovirus infected BTI-TN-5B1-4 insect cells using p-tyramine as substrate preincubated for 15 mins and measured after 45 mins by Cheng-Prusoff equation analysis
T1 sequence (P27338 whole entry): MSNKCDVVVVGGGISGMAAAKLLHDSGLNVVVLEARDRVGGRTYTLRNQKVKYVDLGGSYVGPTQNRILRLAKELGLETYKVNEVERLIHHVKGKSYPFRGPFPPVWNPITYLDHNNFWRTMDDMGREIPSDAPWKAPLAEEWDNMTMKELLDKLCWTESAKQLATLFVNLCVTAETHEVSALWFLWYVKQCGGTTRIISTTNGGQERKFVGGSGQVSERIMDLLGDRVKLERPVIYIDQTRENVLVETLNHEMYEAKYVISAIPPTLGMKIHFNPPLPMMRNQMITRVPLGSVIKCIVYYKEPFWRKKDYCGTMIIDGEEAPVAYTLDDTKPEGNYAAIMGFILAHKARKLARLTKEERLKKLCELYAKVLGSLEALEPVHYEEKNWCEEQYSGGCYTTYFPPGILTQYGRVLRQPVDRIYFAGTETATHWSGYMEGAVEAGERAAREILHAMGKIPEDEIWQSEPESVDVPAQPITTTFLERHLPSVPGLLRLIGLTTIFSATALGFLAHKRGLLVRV

[2] = biological target: T2, Amine oxidase [flavin-containing] A (Rattus norvegicus, UniProt P21396)
T2 sequence (P21396 whole entry): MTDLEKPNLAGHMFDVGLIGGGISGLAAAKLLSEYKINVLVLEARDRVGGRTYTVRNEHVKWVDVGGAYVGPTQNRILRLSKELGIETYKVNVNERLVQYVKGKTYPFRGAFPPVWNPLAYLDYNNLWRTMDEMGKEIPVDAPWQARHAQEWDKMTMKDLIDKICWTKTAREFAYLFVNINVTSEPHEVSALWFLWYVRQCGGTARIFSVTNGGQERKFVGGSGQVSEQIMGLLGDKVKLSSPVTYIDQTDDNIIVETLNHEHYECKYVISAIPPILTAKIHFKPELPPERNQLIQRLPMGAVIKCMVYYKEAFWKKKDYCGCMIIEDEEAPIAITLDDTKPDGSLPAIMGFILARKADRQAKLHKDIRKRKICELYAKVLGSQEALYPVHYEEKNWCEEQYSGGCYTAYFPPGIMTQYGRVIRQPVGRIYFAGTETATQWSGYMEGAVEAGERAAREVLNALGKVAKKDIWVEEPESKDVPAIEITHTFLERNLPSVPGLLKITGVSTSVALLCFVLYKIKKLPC
Description: Inhibition of Sprague-Dawley rat liver MAO-A using p-tyramine as substrate preincubated for 15 mins and measured after 45 mins by resorufin-based fluorescence assay

Homo sapiens = species on record: Homo sapiens; experiment: Selectivity index, ratio of IC50 for human recombinant MAO-A expressed in baculovirus infected BTI-TN-5B1-4 insect cells to IC50 for human recombinant MAO-B expressed in baculovirus infected BTI-TN-5B1-4 insect cells
[3] = biological target: T3, Amine oxidase [flavin-containing] B (Rattus norvegicus, UniProt P19643)
T3 sequence (P19643 whole entry): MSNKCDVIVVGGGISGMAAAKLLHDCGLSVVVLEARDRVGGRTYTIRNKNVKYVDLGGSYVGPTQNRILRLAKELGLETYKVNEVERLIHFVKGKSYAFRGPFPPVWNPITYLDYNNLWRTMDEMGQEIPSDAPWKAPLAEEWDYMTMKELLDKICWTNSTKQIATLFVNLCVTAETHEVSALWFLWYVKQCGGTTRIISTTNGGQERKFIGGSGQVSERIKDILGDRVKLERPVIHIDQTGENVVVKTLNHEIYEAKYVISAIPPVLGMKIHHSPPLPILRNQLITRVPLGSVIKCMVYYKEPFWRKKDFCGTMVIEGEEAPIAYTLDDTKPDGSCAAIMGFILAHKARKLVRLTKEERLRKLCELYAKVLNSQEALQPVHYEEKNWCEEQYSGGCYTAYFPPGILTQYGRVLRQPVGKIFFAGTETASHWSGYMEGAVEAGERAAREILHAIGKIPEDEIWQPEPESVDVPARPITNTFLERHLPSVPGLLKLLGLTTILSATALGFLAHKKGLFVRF
Description: Inhibition of Sprague-Dawley rat liver MAO-B using p-tyramine as substrate preincubated for 15 mins and measured after 45 mins by resorufin-based fluorescence assay

[4] = biological target: T1, Amine oxidase [flavin-containing] B; experiment: biochemical; format: cell-based, BTI-TN-5B1-4
Description: Inhibition of human recombinant MAO-B expressed in baculovirus infected BTI-TN-5B1-4 insect cells using p-tyramine as substrate preincubated for 15 mins and measured after 45 mins by resorufin-based fluorescence assay

[5] = biological target: T1, Amine oxidase [flavin-containing] B; experiment: Reversible inhibition of human recombinant MAO-B expressed in baculovirus infected BTI-TN-5B1-4 insect cells at IC80 using p-tyramine as substrate incubated for 20 mins followed by increase in substrate concentration up to 1 mM and measured after 300 mins by fluorescence assay
[6] = biological target: T4, Amine oxidase [flavin-containing] A (Homo sapiens, UniProt P21397); experiment: biochemical
T4 sequence (P21397 whole entry): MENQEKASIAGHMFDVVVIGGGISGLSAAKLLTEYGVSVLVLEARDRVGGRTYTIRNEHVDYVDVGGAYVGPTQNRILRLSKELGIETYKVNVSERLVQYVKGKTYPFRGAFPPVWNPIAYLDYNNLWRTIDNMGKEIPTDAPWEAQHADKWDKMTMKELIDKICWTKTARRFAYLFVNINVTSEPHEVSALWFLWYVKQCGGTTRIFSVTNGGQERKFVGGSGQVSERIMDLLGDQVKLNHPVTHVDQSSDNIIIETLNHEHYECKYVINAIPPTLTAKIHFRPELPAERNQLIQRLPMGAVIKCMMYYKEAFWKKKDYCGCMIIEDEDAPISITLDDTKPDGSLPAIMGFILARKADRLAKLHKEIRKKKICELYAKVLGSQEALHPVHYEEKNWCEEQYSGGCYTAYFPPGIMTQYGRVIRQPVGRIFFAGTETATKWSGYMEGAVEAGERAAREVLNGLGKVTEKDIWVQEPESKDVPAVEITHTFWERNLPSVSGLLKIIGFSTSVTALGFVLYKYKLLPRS
Description: Inhibition of human recombinant MAO-A expressed in baculovirus infected BTI-TN-5B1-4 insect cells using p-tyramine as substrate preincubated for 15 mins and measured after 45 mins by resorufin-based fluorescence assay

physchem [7] = conditions: buffer, pH 7.4
in vitro = experiment: in vitro; design: dose or concentration left out as unconfirmed; conditions: PAMPA, pH 7.4
Description: (§1) Effective permeability of the compound in prisma HT buffer at 10 mM at pH 7.4 after 4 hrs by PAMPA

[8] = Kinetic aqueous solubility of compound at 500 uM at pH 2 after 90 mins by UV-vis spectrophotometric analysis; format: physicochemical; conditions: buffer; for log(Kinetic_solubility): pH 2, 1.5 h, 500 µM; for solubility kinetic at 1.5 h, 500 µM: pH 2, read-out: Kinetic_solubility
[9] = Selectivity ratio of IC50 for Sprague-Dawley rat liver MAO-B to human recombinant MAO-B expressed in baculovirus infected BTI-TN-5B1-4 insect cells
[10] = pampa, pH 7.4, 4 h, 10000 µM
Description: as §1

[11] = Kinetic aqueous solubility of compound at 500 uM at pH 5.5 after 90 mins by UV-vis spectrophotometric analysis; format: physicochemical; conditions: buffer; for log(Kinetic_solubility): pH 5.5, 1.5 h, 500 µM; for solubility kinetic at 1.5 h, 500 µM: pH 5.5, read-out: Kinetic_solubility
[12] = buffer, pH 7.4, 1.5 h, 500 µM
physchem [13] = conditions: n-octanol/water, pH 7.4
Cortical neurone [14] = experiment: Neuroprotective activity in rat primary cortical neurons assessed as increase in survival at 100 nM after 120 hrs relative to untreated control; format: functional
Cortical neurone [15] = experiment: Neuroprotective activity in rat primary cortical neurons at 0.1 to 1 nM after 120 hrs; format: functional, cell-based
Cortical neurone [16] = experiment: Neuroprotective activity in rat primary cortical neurons neurovascular unit model assessed as induction of neurite network outgrowth at 1 pM to 10 nM after 120 hrs in presence of HBMEC relative to untreated control; format: functional, cell-based
Cortical neurone [17] = experiment: Neuroprotective activity in rat primary cortical neurons neurovascular unit model assessed as increase in survival at 1 pM to 10 nM after 120 hrs in presence of HBMEC relative to untreated control; format: functional, cell-based
Cortical neurone [18] = experiment: Neuroprotective activity in rat primary cortical neurons assessed as induction of neurite network outgrowth at 10 to 100 nM after 120 hrs; format: functional, cell-based
Cortical neurone [19] = experiment: Neuroprotective activity in rat primary cortical neurons assessed as increase in survival at 1 nM after 120 hrs relative to untreated control; format: functional
Cortical neurone [20] = experiment: Neuroprotective activity in rat primary cortical neurons assessed as induction of neurite network outgrowth at 1 to 10 pM after 120 hrs; format: functional, cell-based
Cortical neurone [21] = experiment: Neuroprotective activity in rat primary cortical neurons neurovascular unit model assessed as increase in survival at 150 to 300 nM after 120 hrs in presence of HBMEC relative to untreated control; format: functional, cell-based
Cortical neurone [22] = experiment: Neuroprotective activity in rat primary cortical neurons neurovascular unit model assessed as induction of neurite network outgrowth at 150 to 300 nM after 120 hrs in presence of HBMEC relative to untreated control; format: functional, cell-based

SMILES: O=C(Cc1ccc(Cl)c(Cl)c1)Nc1ccc2[nH]ccc2c1
- Ki [1]: 390 nM

SMILES: CC(=O)N[C@H]1CC(=O)N(c2ccc(OCc3cccc(F)c3)cc2)C1 [SEMBRAGILINE]
- IC50 [2]: 7700 nM
- Ratio IC50 (Homo sapiens): 653
- IC50 [3]: 14.7 nM
- IC50 [4]: 5.9 nM

SMILES: O=C(Nc1ccc2[nH]ncc2c1)c1cccc(Cl)c1Cl
- Ki [1]: 1140 nM

SMILES: O=C(Nc1ccc2[nH]ccc2n1)c1ccc(F)c(Cl)c1
- inhibition (INH) [5]: Active
- IC50 [6]: > 10000 nM
- solubility kinetic at 1.5 h, 500 µM (physchem [7]): 119 µM (≈ 34.5 µg/mL)
- Papp at 4 h (in vitro): 110 ×10⁻⁶ cm/s
- log(Kinetic_solubility) [8]: -3.33
- solubility kinetic at 1.5 h, 500 µM [8]: 501 µM (≈ 145 µg/mL)
- Ratio IC50 (Homo sapiens): > 3060
- Ratio IC50 [9]: 1.1
- Ki [1]: 1.45 nM
- log(permeability) [10]: -3.96
- log(Kinetic_solubility) [11]: -3.96
- solubility kinetic at 1.5 h, 500 µM [11]: 111 µM (≈ 32.1 µg/mL)
- log(Kinetic_solubility) [12]: -3.92
- logD at 1.5 h (physchem [13]): 2.32

SMILES: O=C(Nc1ccc2[nH]ccc2n1)c1ccc(Cl)c(Cl)c1
- Efficacy (Cortical neurone [14]): 11%
- Activity (Cortical neurone [15]): Active
- IC50 [6]: > 10000 nM
- Activity (Cortical neurone [16]): Active
- solubility kinetic at 1.5 h, 500 µM (physchem [7]): 39.8 µM (≈ 12.2 µg/mL)
- Papp at 4 h (in vitro): 107 ×10⁻⁶ cm/s
- Activity (Cortical neurone [17]): Active
- Activity (Cortical neurone [18]): inactive
- log(Kinetic_solubility) [8]: -3.33
- solubility kinetic at 1.5 h, 500 µM [8]: 471 µM (≈ 144 µg/mL)
- Efficacy (Cortical neurone [19]): 31%
- Activity (Cortical neurone [20]): Active
- log(permeability) [10]: -3.97
- log(Kinetic_solubility) [11]: -4.37
- solubility kinetic at 1.5 h, 500 µM [11]: 42.9 µM (≈ 13.1 µg/mL)
- log(Kinetic_solubility) [12]: -4.4
- logD at 1.5 h (physchem [13]): 3.19

SMILES: O=C(Nc1ccc2[nH]ncc2c1)c1c(F)cccc1Cl
- Ki [1]: 1460 nM

SMILES: O=C(Nc1ccc2[nH]ccc2n1)c1ccc(Cl)c(F)c1
- IC50 [6]: > 10000 nM
- solubility kinetic at 1.5 h, 500 µM (physchem [7]): 93.8 µM (≈ 27.2 µg/mL)
- Papp at 4 h (in vitro): 127 ×10⁻⁶ cm/s
- log(Kinetic_solubility) [8]: -3.41
- solubility kinetic at 1.5 h, 500 µM [8]: 391 µM (≈ 113 µg/mL)
- Ratio IC50 (Homo sapiens): > 917
- Ratio IC50 [9]: 1.1
- Ki [1]: 4.82 nM
- log(permeability) [10]: -3.9
- log(Kinetic_solubility) [11]: -4.09
- solubility kinetic at 1.5 h, 500 µM [11]: 82.1 µM (≈ 23.8 µg/mL)
- log(Kinetic_solubility) [12]: -4.03
- logD at 1.5 h (physchem [13]): 2.69

SMILES: O=C(Nc1cc2cc[nH]c2cn1)c1ccc(Cl)c(Cl)c1
- IC50 [6]: > 10000 nM
- solubility kinetic at 1.5 h, 500 µM (physchem [7]): 65.1 µM (≈ 19.9 µg/mL)
- Papp at 4 h (in vitro): 111 ×10⁻⁶ cm/s
- log(Kinetic_solubility) [8]: -3.37
- solubility kinetic at 1.5 h, 500 µM [8]: 426 µM (≈ 130 µg/mL)
- Ratio IC50 (Homo sapiens): > 346
- Ratio IC50 [9]: 1.1
- Ki [1]: 12.8 nM
- log(permeability) [10]: -3.96
- log(Kinetic_solubility) [11]: -4.16
- solubility kinetic at 1.5 h, 500 µM [11]: 68.8 µM (≈ 21.1 µg/mL)
- log(Kinetic_solubility) [12]: -4.19
- logD at 1.5 h (physchem [13]): 3.04
- IC50 [4]: 28.9 nM

SMILES: O=C(Nc1cc2cc[nH]c2cn1)c1ccc(F)c(F)c1
- Ratio IC50 (Homo sapiens): > 36
- Ratio IC50 [9]: 1.1
- Ki [1]: 122 nM
- IC50 [3]: 1300 nM

SMILES: O=C(Nc1ccc2[nH]ncc2c1)c1ccc(Cl)c(Cl)c1
- Ki [1]: 5.48 nM

SMILES: C[C@]12CC[C@@H]3c4ccc(O)cc4CC[C@H]3[C@@H]1CC[C@@H]2O
- Activity (Cortical neurone [21]): Active
- Activity (Cortical neurone [22]): Active

SMILES: O=C(Nc1ccc2[nH]ccc2n1)c1ccc(F)c(F)c1
- IC50 [6]: > 10000 nM
- Ratio IC50 (Homo sapiens): > 217
- Ratio IC50 [9]: 1.1
- Ki [1]: 20.4 nM

SMILES: O=C(Nc1cc2cc[nH]c2cn1)c1ccc(Cl)c(F)c1
- IC50 [2]: > 10000 nM
- IC50 [6]: > 10000 nM
- Ratio IC50 (Homo sapiens): > 82
- Ratio IC50 [9]: 1.1
- Ki [1]: 53.5 nM
- IC50 [3]: 574 nM
- IC50 [4]: 121 nM

SMILES: O=C(Nc1cc2cc[nH]c2cn1)c1ccc(F)c(Cl)c1
- IC50 [2]: > 10000 nM
- IC50 [6]: > 10000 nM
- Ratio IC50 (Homo sapiens): > 138
- Ratio IC50 [9]: 1.1
- Ki [1]: 31.8 nM
